Experimental findings from patent US20070197606A1, “USE OF PPAR AGONISTS AS ANTI-OXIDANTS” (priority 2006, published 2007) are described below.

Assay [1] can be described thus: In vitro antioxidative effect on free radicals released by the hydrophilic free radical generator AAPH. The note with it: mean±SD, n=6. The format is biochemical. The procedure:
FIG. 6 Effect of L-FABP on free radicals released by the hydrophilic free radical generator AAPH. L-FABP had as much effect on inactivating hydrophilic free radicals as 3.5 mM Vitamin C, while lysozyme and albumin had negligible effect, 96±1% and 97±1%, respectively (mean±SD, n=6).
(§1) Our group has constructed and isolated recombinant L-FABP and used this protein in an in vitro model to study it's antioxidative properties.

Assay [2] has as its system bile duct ligated rats. It is filed as in vivo, rat. The note with it: serum; BDL rats, clofibrate 50 mg/100 g body weight/day by gavage for 5 days after 7 days BDL; mean ± standard error.
The subject of assay [3] is liver fatty acid binding protein. Put plainly: L-FABP mRNA (RT-PCR) and protein (Western blot) level in liver of bile duct ligated rats with clofibrate treatment. The format is in vivo, rat. The settings on record: BDL rats, five day treatment with clofibrate, n=5. From the text:
FIG. 5. […] Bile-duct ligation animal model time study: […] Histopathologic examination: […] The sense primer was [NT] […] ID NO: 2) (position at 407).
Background: Immunoblotting shows a protein as a band on a membrane.

For assay [4], the system named is bile duct ligated rats. Put plainly: Lipid peroxidation (thiobarbituric acid-reactive substances) assay in bile duct ligated rats with clofibrate treatment. The settings on record: BDL rats, clofibrate 50 mg/100 g body weight/day by gavage for 5 days after 7 days BDL, mean ± standard error. It is filed as in vivo, rat. The source says:
Bile-duct ligation animal model time study: […] Histopathologic examination: […] The sense primer was [NT] […] ID NO: 2) (position at 407).

Assay [5] can be described thus: In vitro antioxidative effect on free radicals released by the lipophilic free radical generator AMVN. The format is biochemical. The procedure: FIG. 7 Effect of L-FABP on free radicals released by the lipophilic free radical generator AMVN. L-FABP had as much effect on inactivating lipophilic free radicals as 5 μM Vitamin E (mean±SD, n=6).
as §1

For Lysozyme, in assay [1], the “effect on free radical inactivation (AAPH)” value is given as 96±1%.

For `CCOC(=O)C(C)(C)Oc1ccc(Cl)cc1` [Clofibrate], in the assay with bile duct ligated rats [2], the ATL is on record as 30.70 ± 3.26 U/L, the Ammonia came out at 205.7 ± 16.6 µmol/L and the “Total Bilirubin” value is listed as 4.87 ± 0.90 mg/dL. Further, the “liver fatty acid binding protein mRNA level, of the sham group” value in assay [3] (RT-PCR) is 74%. The “liver fatty acid binding protein level, of the sham group” value in assay [3] (Western blot) was 79%. For the same compound, the “TBARS (liver)” value in the assay on bile duct ligated rats [4] (liver) turned out to be 0.266 ± 0.053 nmol/mg protein. In addition, the “TBARS (serum)” value with bile duct ligated rats [4] (serum) stood at 0.212 ± 0.032 nmol/ml serum.

In the case of `O=C1O[C@H]([C@@H](O)CO)C(O)=C1O` [Vitamin C], the “antioxidant properties in the AMVN system” value in assay [5] was “no antioxidant properties”.

For the compound Albumin, the “effect on free radical inactivation (AAPH)” value in assay [1] was determined as 97±1%.
